# According to ChEMBL document CHEMBL4828763, “Discovery of Potent and Selective CDK9 Degraders for Targeting Transcription Regulation in Triple-Negative Breast Cancer” (J Med Chem, 2021):
# Activity calls are given as the source filed them. The rule behind the calls is not given here.
# How the values were obtained:
# BT-549 = test: Growth inhibition of human BT-549 cells assessed as cell viability measured after 4 days by WST8 assay; assay type: functional, cell-based; conditions: BT-549, 96 h
# [1] = target: T1, Protein cereblon/Cyclin-dependent kinase 9 (Homo sapiens) (UniProt P50750+Q96SW2); test: Protac activity at CRBN/CDK9 in human MDA-MB-231 cells assessed as induction of degradation of CDK9 at 500 nM incubated for 8 hrs by Western blot analysis; assay type: cell-based
# MDA-MB-231 [2] = test: Growth inhibition of human MDA-MB-231 cells assessed as cell viability measured after 4 days by WST8 assay; assay type: functional, cell-based; conditions: MDA-MB-231, 96 h
# MDA-MB-468 = test: Growth inhibition of human MDA-MB-468 cells assessed as cell viability measured after 4 days by WST8 assay; assay type: functional, cell-based; conditions: MDA-MB-468, 96 h
# [3] = Downregulation of MCL1 gene expression in human MDA-MB-231 cells at 0.5 uM incubated for 4 hrs by quantitative RT-PCR based gene set enrichment analysis relative to control; assay type: functional
# [4] = target: Protein cereblon/Cyclin-dependent kinase 1 (Homo sapiens) (UniProt P06493+Q96SW2); test: Protac activity at CRBN/CDK1 in human MDA-MB-231 cells assessed as induction of degradation of CDK1 at 0.01 to 2.5 uM incubated for 4 to 8 hrs by Western blot analysis; assay type: cell-based; conditions: dose 0.01-2.5 µM, time 4-8 hrs
# [5] = target: T1, Protein cereblon/Cyclin-dependent kinase 9 (Homo sapiens); test: Protac activity at CRBN/CDK9 in human MDA-MB-231 cells assessed as induction of degradation of CDK9 at 500 nM measured after 2 hrs by Western blot analysis; assay type: cell-based
# [6] = Downregulation of MYC gene expression in human MDA-MB-231 cells at 0.5 uM incubated for 4 hrs by quantitative RT-PCR based gene set enrichment analysis relative to control; assay type: functional
# MDA-MB-231 [7] = test: Induction of apoptosis in human MDA-MB-231 cells assessed as apoptotic cells at 500 nM incubated for 48 hrs by Annexin V-FITC/PI analysis (reference value: 4.85%); assay type: functional
# [8] = target: Protein cereblon/Cyclin-dependent kinase 2 (Homo sapiens) (UniProt P24941+Q96SW2); test: Protac activity at CRBN/CDK2 in human MDA-MB-231 cells assessed as induction of degradation of CDK2 at 0.01 to 2.5 uM incubated for 4 to 8 hrs by Western blot analysis; assay type: cell-based; conditions: dose 0.01-2.5 µM, time 4-8 hrs
# [9] = target: T1, Protein cereblon/Cyclin-dependent kinase 9 (Homo sapiens); test: Protac activity at CRBN/CDK9 in human MDA-MB-231 cells assessed as induction of degradation of CDK9 pretreated with compound 44 at 500 nM incubated for 8 hrs by Western blot analysis; assay type: cell-based
# [10] = target: Protein cereblon/Cyclin-dependent kinase 7 (Homo sapiens) (UniProt P50613+Q96SW2); test: Protac activity at CRBN/CDK7 in human MDA-MB-231 cells assessed as induction of degradation of CDK7 at 0.01 to 2.5 uM incubated for 4 to 8 hrs by Western blot analysis; assay type: cell-based; conditions: dose 0.01-2.5 µM, time 4-8 hrs
# Tumour [11] = test: Induction of CDK9 degradation in tumor of human MDA-MB-231 cells xenografted in BALB/c mouse model at 0.15 mM intratumoral injection measured after 16 hrs by Western blot analysis relative to control; assay type: functional, Neoplasm
# [12] = target: Protein cereblon/Eukaryotic peptide chain release factor GTP-binding subunit ERF3A (Homo sapiens) (UniProt Q96SW2+P15170); test: Protac activity at CRBN/GSPT1 in human MDA-MB-231 cells assessed as induction of degradation of GSPT1 incubated for 4 to 8 hrs by Western blot analysis; assay type: cell-based; conditions: time 4-8 hrs
# [13] = target: Protein cereblon/Cyclin-dependent kinase 5 (Homo sapiens) (UniProt Q00535+Q96SW2); test: Protac activity at CRBN/CDK5 in human MDA-MB-231 cells assessed as induction of degradation of CDK5 at 0.01 to 2.5 uM incubated for 4 to 8 hrs by Western blot analysis; assay type: cell-based; conditions: dose 0.01-2.5 µM, time 4-8 hrs
# [14] = Solubility of the compound; assay type: physicochemical
# [15] = target: T1, Protein cereblon/Cyclin-dependent kinase 9 (Homo sapiens); test: Protac activity at CRBN/CDK9 in human MDA-MB-231 cells assessed as induction of degradation of CDK9 measured after 4 to 8 hrs by Western blot analysis; assay type: cell-based; conditions: dose 0.01-2.5 µM, time 4-8 hrs
# MDA-MB-231 [16] = test: Downregulation of CDK9 mRNA expression in human MDA-MB-231 cells at 0.5 uM incubated for 4 hrs by RNA-seq analysis; assay type: functional, cell-based
# [17] = target: T1, Protein cereblon/Cyclin-dependent kinase 9 (Homo sapiens); test: Protac activity at CRBN/CDK9 in human MDA-MB-231 cells assessed as induction of degradation of CDK9 pretreated with PR171 at 500 nM incubated for 8 hrs by Western blot analysis; assay type: cell-based
# [18] = target: Protein cereblon/Cyclin-dependent kinase 6 (Homo sapiens) (UniProt Q00534+Q96SW2); test: Protac activity at CRBN/CDK6 in human MDA-MB-231 cells assessed as induction of degradation of CDK6 at 0.01 to 2.5 uM incubated for 4 to 8 hrs by Western blot analysis; assay type: cell-based; conditions: dose 0.01-2.5 µM, time 4-8 hrs
# [19] = target: T1, Protein cereblon/Cyclin-dependent kinase 9 (Homo sapiens); test: Protac activity at CRBN/CDK9 in human MDA-MB-231 cells assessed as induction of degradation of CDK9 pretreated with MLN4924 at 500 nM incubated for 8 hrs by Western blot analysis; assay type: cell-based
# MDA-MB-231 [20] = test: Induction of apoptosis in human MDA-MB-231 cells assessed as apoptotic cells at 100 nM incubated for 48 hrs by Annexin V-FITC/PI analysis (reference value: 4.85%); assay type: functional
# [21] = target: Protein cereblon/Cyclin-dependent kinase 4 (Homo sapiens) (UniProt P11802+Q96SW2); test: Protac activity at CRBN/CDK4 in human MDA-MB-231 cells assessed as induction of degradation of CDK4 at 0.01 to 2.5 uM incubated for 4 to 8 hrs by Western blot analysis; assay type: cell-based; conditions: dose 0.01-2.5 µM, time 4-8 hrs
# [22] = target: T1, Protein cereblon/Cyclin-dependent kinase 9 (Homo sapiens); test: Protac activity at CRBN/CDK9 in human MDA-MB-231 cells assessed as induction of degradation of CDK9 pretreated with thalidomide at 500 nM incubated for 8 hrs by Western blot analysis; assay type: cell-based
# MDA-MB-231 [23] = test: Induction of apoptosis in human MDA-MB-231 cells assessed as apoptotic cells at 10 nM incubated for 48 hrs by Annexin V-FITC/PI analysis (reference value: 4.85%); assay type: functional
# Tumour [24] = test: Induction of CDK7 degradation in tumor of human MDA-MB-231 cells xenografted in BALB/c mouse model at 0.15 mM intratumoral injection measured after 16 hrs by Western blot analysis relative to control; assay type: functional, tissue-based; conditions: Neoplasm
# T1 sequence (P50750 whole entry, looked up): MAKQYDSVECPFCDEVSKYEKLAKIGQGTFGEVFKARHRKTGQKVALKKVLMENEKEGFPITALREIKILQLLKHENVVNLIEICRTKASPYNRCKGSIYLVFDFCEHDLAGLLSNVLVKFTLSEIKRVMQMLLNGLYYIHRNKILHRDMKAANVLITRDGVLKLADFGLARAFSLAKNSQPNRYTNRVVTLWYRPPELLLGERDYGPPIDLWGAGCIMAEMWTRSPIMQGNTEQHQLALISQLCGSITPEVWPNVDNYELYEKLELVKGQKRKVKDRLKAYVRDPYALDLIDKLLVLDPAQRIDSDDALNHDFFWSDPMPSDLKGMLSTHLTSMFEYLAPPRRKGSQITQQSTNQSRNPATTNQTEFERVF
# T1 sequence (Q96SW2 whole entry, looked up): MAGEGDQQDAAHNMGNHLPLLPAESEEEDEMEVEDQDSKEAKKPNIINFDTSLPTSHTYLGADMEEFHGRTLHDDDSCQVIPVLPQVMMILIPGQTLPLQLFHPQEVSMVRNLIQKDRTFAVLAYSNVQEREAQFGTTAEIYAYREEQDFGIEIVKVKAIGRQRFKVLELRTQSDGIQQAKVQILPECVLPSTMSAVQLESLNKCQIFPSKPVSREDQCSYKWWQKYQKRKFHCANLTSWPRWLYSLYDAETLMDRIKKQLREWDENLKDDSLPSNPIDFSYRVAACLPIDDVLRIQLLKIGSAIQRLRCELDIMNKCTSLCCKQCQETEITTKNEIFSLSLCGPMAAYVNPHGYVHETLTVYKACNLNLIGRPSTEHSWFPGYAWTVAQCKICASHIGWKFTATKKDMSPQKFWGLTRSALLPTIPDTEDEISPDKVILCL
# Sequence of Protein cereblon/Cyclin-dependent kinase 4 (Homo sapiens) (P11802 2-303 limits assumed): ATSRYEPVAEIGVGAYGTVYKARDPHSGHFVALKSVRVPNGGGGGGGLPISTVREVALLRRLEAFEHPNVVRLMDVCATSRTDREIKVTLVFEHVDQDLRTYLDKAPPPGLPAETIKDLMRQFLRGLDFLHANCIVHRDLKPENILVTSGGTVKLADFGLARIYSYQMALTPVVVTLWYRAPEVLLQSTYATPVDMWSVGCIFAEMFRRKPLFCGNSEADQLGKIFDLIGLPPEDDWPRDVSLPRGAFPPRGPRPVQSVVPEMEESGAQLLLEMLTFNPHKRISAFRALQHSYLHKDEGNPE
# Sequence of Protein cereblon/Cyclin-dependent kinase 4 (Homo sapiens) (Q96SW2 whole entry partner): as the sequence (Q96SW2 whole entry, looked up) above
# Sequence of Protein cereblon/Cyclin-dependent kinase 6 (Homo sapiens) (Q00534 whole entry, looked up): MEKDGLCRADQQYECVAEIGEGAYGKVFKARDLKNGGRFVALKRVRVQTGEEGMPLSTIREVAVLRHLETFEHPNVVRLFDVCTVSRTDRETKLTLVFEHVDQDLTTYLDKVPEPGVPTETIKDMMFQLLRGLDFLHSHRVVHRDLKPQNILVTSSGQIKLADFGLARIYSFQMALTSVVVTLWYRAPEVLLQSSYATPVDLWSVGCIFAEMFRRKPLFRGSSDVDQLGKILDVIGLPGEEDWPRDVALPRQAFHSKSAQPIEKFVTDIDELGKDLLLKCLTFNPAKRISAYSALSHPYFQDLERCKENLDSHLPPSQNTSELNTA
# Sequence of Protein cereblon/Cyclin-dependent kinase 6 (Homo sapiens) (Q96SW2 whole entry, looked up): as the sequence (Q96SW2 whole entry, looked up) above
# Sequence of Protein cereblon/Cyclin-dependent kinase 1 (Homo sapiens) (P06493 whole entry, looked up): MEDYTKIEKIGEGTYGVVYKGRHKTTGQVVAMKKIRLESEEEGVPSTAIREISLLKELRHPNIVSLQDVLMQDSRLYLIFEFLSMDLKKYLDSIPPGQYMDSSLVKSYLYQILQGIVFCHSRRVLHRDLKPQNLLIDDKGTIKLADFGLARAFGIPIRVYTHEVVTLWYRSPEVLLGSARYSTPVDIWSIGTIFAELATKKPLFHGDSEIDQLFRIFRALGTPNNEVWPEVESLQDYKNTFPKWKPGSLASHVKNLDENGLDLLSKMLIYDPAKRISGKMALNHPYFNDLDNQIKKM
# Sequence of Protein cereblon/Cyclin-dependent kinase 1 (Homo sapiens) (Q96SW2 whole entry, looked up): as the sequence (Q96SW2 whole entry, looked up) above
# Sequence of Protein cereblon/Eukaryotic peptide chain release factor GTP-binding subunit ERF3A (Homo sapiens) (P15170 whole entry, looked up): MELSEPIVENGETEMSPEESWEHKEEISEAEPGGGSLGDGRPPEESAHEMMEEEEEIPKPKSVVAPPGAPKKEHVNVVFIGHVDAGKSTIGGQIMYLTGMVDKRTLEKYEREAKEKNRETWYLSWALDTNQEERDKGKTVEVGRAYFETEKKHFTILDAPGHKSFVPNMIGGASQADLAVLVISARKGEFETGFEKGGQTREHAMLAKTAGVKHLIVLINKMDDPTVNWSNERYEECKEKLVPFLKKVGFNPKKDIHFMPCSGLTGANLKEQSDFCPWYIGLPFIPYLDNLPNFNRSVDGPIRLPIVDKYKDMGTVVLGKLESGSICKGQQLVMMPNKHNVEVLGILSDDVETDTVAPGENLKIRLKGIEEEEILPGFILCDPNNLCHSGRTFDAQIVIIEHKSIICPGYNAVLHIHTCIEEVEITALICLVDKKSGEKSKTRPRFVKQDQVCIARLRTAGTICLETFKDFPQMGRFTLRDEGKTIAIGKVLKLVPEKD
# Sequence of Protein cereblon/Eukaryotic peptide chain release factor GTP-binding subunit ERF3A (Homo sapiens) (Q96SW2 whole entry, looked up): as the sequence (Q96SW2 whole entry, looked up) above
# Sequence of Protein cereblon/Cyclin-dependent kinase 5 (Homo sapiens) (Q00535 whole entry, looked up): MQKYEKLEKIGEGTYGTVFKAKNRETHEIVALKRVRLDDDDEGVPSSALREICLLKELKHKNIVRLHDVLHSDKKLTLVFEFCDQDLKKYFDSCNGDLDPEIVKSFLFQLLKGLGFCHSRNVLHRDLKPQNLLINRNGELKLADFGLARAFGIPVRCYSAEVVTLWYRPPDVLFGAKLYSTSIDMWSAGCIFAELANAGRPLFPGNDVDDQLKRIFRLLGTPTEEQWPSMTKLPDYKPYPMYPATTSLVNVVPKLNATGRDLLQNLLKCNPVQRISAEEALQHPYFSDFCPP
# Sequence of Protein cereblon/Cyclin-dependent kinase 5 (Homo sapiens) (Q96SW2 whole entry, looked up): as the sequence (Q96SW2 whole entry, looked up) above
# Sequence of Protein cereblon/Cyclin-dependent kinase 7 (Homo sapiens) (P50613 whole entry, looked up): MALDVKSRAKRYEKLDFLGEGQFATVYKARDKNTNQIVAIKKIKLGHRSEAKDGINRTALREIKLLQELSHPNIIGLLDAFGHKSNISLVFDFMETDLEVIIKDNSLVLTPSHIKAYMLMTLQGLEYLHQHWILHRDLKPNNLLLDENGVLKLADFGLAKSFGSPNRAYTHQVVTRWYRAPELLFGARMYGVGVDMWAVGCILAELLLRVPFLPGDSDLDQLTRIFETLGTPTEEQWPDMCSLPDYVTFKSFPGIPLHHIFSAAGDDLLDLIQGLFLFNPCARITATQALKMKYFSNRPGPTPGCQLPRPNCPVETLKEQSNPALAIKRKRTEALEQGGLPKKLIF
# Sequence of Protein cereblon/Cyclin-dependent kinase 7 (Homo sapiens) (Q96SW2 whole entry, looked up): as the sequence (Q96SW2 whole entry, looked up) above
compound,measurement,setting,value
CC(C)c1cnn2c(NCc3ccc(NC(=O)CCCCCCCCOc4cccc5c4C(=O)N(C4CCC(=O)NC4=O)C5=O)cc3)nc(OC3CCN(C)CC3)nc12 (configuration not stated),IC50,BT-549,120 nM
same,Activity,[1],Active
same,IC50,MDA-MB-231 [2],130 nM
same,IC50,MDA-MB-468,120 nM
CC(C)c1cnn2c(NCc3ccc(NC(=O)CCCCCCCOc4cccc5c4CN(C4CCC(=O)NC4=O)C5=O)cc3)nc(OC3CCN(C)CC3)nc12 (configuration not stated),IC50,BT-549,40 nM
same,Activity,[1],Active
same,IC50,MDA-MB-231 [2],72 nM
same,IC50,MDA-MB-468,104 nM
CC(C)c1cnn2c(NCc3ccc(NC(=O)CCCCCCCCOc4cccc5c4CN(C4CCC(=O)NC4=O)C5=O)cc3)nc(OC3CCN(C)CC3)nc12 (configuration not stated),IC50,BT-549,200 nM
same,Activity,[1],Active
same,IC50,MDA-MB-231 [2],170 nM
same,IC50,MDA-MB-468,300 nM
CC(C)c1cnn2c(NCc3ccc(NC(=O)CCCCCCCOc4cccc5c4C(=O)N(C4CCC(=O)NC4=O)C5=O)cc3)nc(OC3CCN(C)CC3)nc12 (configuration not stated),IC50,BT-549,48 nM
same,inhibition at 0.5 µM,[3],59.6%
same,Activity,[4],inactive
same,Activity,[5],100%
same,inhibition at 0.5 µM,[6],75.3%
same,Activity,MDA-MB-231 [7],26.49%
same,Activity,[8],inactive
same,Activity,[9],inactive
same,Activity,[1],Active
same,Activity,[10],inactive
same,Activity,Tumour [11],26%
same,Activity,[12],inactive
same,IC50,MDA-MB-231 [2],51 nM
same,Activity,[13],inactive
same,solubility,[14],Insoluble
same,Activity,[15],Dose-Dependent Effect
same,IC50,MDA-MB-468,66 nM
same,Activity,MDA-MB-231 [16],inactive
same,Activity,[17],inactive
same,Activity,[18],inactive
same,Activity,[19],inactive
same,Activity,MDA-MB-231 [20],10.48%
same,Activity,[21],inactive
same,Activity,[22],inactive
same,Activity,MDA-MB-231 [23],6.39%
same,Activity,Tumour [24],inactive
CC(C)c1cnn2c(NCc3ccc(NC(=O)CCCCCCOc4cccc5c4CN(C4CCC(=O)NC4=O)C5=O)cc3)nc(OC3CCN(C)CC3)nc12 (configuration not stated),IC50,BT-549,470 nM
same,Activity,[1],Active
same,IC50,MDA-MB-231 [2],390 nM
same,IC50,MDA-MB-468,530 nM
CC(C)c1cnn2c(NCc3ccc(NC(=O)CCCCCCOc4cccc5c4C(=O)N(C4CCC(=O)NC4=O)C5=O)cc3)nc(OC3CCN(C)CC3)nc12 (configuration not stated),IC50,BT-549,170 nM
same,Activity,[1],Active
same,IC50,MDA-MB-231 [2],260 nM
same,IC50,MDA-MB-468,180 nM
CC(C)c1cnn2c(NCc3ccc(NC(=O)CCCCCCc4cccc5c4CN(C4CCC(=O)NC4=O)C5=O)cc3)nc(OC3CCN(C)CC3)nc12 (configuration not stated),IC50,BT-549,230 nM
same,Activity,[1],Active
same,IC50,MDA-MB-231 [2],200 nM
same,IC50,MDA-MB-468,130 nM
CC(C)c1cnn2c(NCc3ccc(NC(=O)CCCCCCNC(=O)COc4cccc5c4C(=O)N(C4CCC(=O)NC4=O)C5=O)cc3N(C)C)nc(OC3CCN(C)CC3)nc12 (configuration not stated),IC50,BT-549,14300 nM
same,IC50,MDA-MB-231 [2],> 20000 nM
same,IC50,MDA-MB-468,> 20000 nM
CC(C)c1cnn2c(NCc3ccc(NC(=O)COCCOCCOCCOc4cccc5c4C(=O)N(C4CCC(=O)NC4=O)C5=O)cc3)nc(OC3CCN(C)CC3)nc12 (configuration not stated),IC50,BT-549,4690 nM
same,IC50,MDA-MB-231 [2],10300 nM
same,IC50,MDA-MB-468,4370 nM
CC(C)c1cnn2c(NCc3cc(NC(=O)CCCCCCNC(=O)COc4cccc5c4C(=O)N(C4CCC(=O)NC4=O)C5=O)ccc3N(C)C)nc(OC3CCN(C)CC3)nc12 (configuration not stated),IC50,BT-549,> 20000 nM
same,IC50,MDA-MB-231 [2],> 20000 nM
same,IC50,MDA-MB-468,> 20000 nM
CC(C)c1cnn2c(NCc3ccc(NC(=O)CCCCCOc4cccc5c4C(=O)N(C4CCC(=O)NC4=O)C5)cc3)nc(OC3CCN(C)CC3)nc12 (configuration not stated),IC50,BT-549,370 nM
same,IC50,MDA-MB-231 [2],570 nM
same,IC50,MDA-MB-468,470 nM
CC(C)c1cnn2c(NCc3ccc(NC(=O)CCCCCCNc4cccc5c4C(=O)N(C4CCC(=O)NC4=O)C5=O)cc3)nc(OC3CCN(C)CC3)nc12 (configuration not stated),IC50,BT-549,550 nM
same,IC50,MDA-MB-231 [2],530 nM
same,IC50,MDA-MB-468,660 nM
CC(C)c1cnn2c(NCc3ccc(NC(=O)COCCOCCOc4cccc5c4C(=O)N(C4CCC(=O)NC4=O)C5=O)cc3)nc(OC3CCN(C)CC3)nc12 (configuration not stated),IC50,BT-549,3780 nM
same,IC50,MDA-MB-231 [2],9200 nM
same,IC50,MDA-MB-468,4590 nM
CC(C)c1cnn2c(NCc3ccc(NC(=O)CCCCCCCCCOc4cccc5c4CN(C4CCC(=O)NC4=O)C5=O)cc3)nc(OC3CCN(C)CC3)nc12 (configuration not stated),IC50,BT-549,35 nM
same,Activity,[1],Active
same,IC50,MDA-MB-231 [2],137 nM
same,IC50,MDA-MB-468,184 nM
